# Reference: publication PMC4274051 (Nature, 2013)
# Molecular target: K-Ras(G12C) (Homo sapiens, UniProt P01116, G12C)
# Experiment: disulphide tethering, intact protein mass spectrometry
# Assay type: binding
# Sequence of K-Ras(G12C) (P01116 1-169 isoform P01116-2 G12C): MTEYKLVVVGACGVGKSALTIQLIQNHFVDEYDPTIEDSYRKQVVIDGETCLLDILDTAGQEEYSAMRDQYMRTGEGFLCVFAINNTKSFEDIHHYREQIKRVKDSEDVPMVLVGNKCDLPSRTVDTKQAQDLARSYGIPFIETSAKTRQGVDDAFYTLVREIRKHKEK
compound,measurement,value
CN(C)CCSSCCNC(=O)C1CCN(C(=O)CSc2ccc(Cl)cc2)CC1 [6H05],% modification,94 ± 1 % modification
